Values belong to the molecule of their own block, whether it stands above or below them.
Experiments:
CDK9/CycT1 = target: T1, CDK9/CycT1 (Homo sapiens, UniProt P50750); assay: ADP-Glo kinase assay; assay type: biochemical
T1 construct: purchased SignalChem
Procedure: ADP-Glo assay kit was purchased from Promega and the CDK9/CycT1 protein and PDKtide substrate were purchased from SignalChem. […] The reaction was started by pre-incubating 4 μL of protein (20 nM), 2 μL of substrate (100 μM), and 2 μL of serial diluted drug in 1× assay buffer (50 mM HEPES, 3 mM MgCl2, 3 mM MnCl2, and 1 mM DTT) for 30 minutes. After pre-incubating, 4 μL of ATP (1 μM) was added to each well and incubated for an additional 90 minutes. The ADP-Glo Reagent (10 μL) and Kinase Detection Reagent (20 μL) were added to each well and incubated as recommended by Promega. The reaction was quantified by measuring luminescence and the IC50 was calculated using GraphPad Prism software.

C4-2B = assay: 2D CellTiter-Glo cell viability assay; assay type: cell-based; conditions: 72 h
Procedure: (§1) CellTiter-Glo® 2.0 Luminescent cell viability assay reagent was purchased from Promega and 22Rv1, LASCPC-01, C4-2, C4-2B and NCI-H660, DU-145, PC-3 and LNCap cell lines were obtained from ATCC and a clinical core facility at Huntsman Cancer Institute. […] The results of cell viability were obtained and IC50 values were calculated (see Table 5, below) showing sub-micromolar cell killing of these prostate cancer cells.

LNCap = assay: 2D CellTiter-Glo cell viability assay; assay type: cell-based; conditions: Homo sapiens, 72 hours
Procedure: (§2) CellTiter-Glo® 2.0 Luminescent cell viability assay reagent was purchased from Promega and 22Rv1 and LASCPC-01 cell lines were purchased from ATCC. […] An equal volume of CellTiter-Glo 2D Reagent was added to the cell suspensions and luminescence was recorded after 30-minute incubation period. […] FIG. 2 illustrates cellular antiproliferative efficacy of a benchmark CDK9 inhibitor AD-4573 on six prostate cancer cell lines over various concentrations.
as §1

DU-145 = assay: 2D CellTiter-Glo cell viability assay; assay type: cell-based; conditions: Homo sapiens; DU-145, 72 hours
Procedure: as §2, §1

LASCPC-01 = assay: 2D CellTiter-Glo cell viability assay; assay type: cell-based; conditions: 72 h, LASCPC-01, 72 hours
Procedure: as §2, §1

22Rv1 = assay: 2D CellTiter-Glo cell viability assay; assay type: cell-based; conditions: Homo sapiens; 22Rv1, 72 hours
Procedure: as §2, §1

PC-3 = assay: 2D CellTiter-Glo cell viability assay; assay type: cell-based; conditions: Homo sapiens, PC-3, 72 h
Procedure: as §2, §1

NCI-H660 = assay: 2D CellTiter-Glo cell viability assay; assay type: cell-based; conditions: NCI-H660, 72 hours
Procedure: as §2, §1

C4-2 = assay: 2D CellTiter-Glo cell viability assay; assay type: cell-based, human; conditions: Homo sapiens, C4-2, 72 h
Procedure: as §1

[1] = tested on: RWPE-1 Normal Prostate Cells; assay: LDH-Glo cytotoxicity assay in normal prostate cells; assay type: cell-based; conditions: Homo sapiens, 72 hours
Procedure: (§3) Multiplexing the LDH-Glo Cytotoxicity Assay and CellTiter-Glo 2D Cell Viability Assay. […] Change in toxicity was measured using the LDH-Glo Cytotoxicity Assay by combining 50 μL diluted samples with 50 μL LDH Detection Reagent and recording luminescence after 1 hour incubation. After samples were removed for LDH measurement, an equal volume of CellTiter Glo 2D Reagent was added to the remaining cell suspension and luminescence was recorded after 30-minute incubation period.

[2] = tested on: RWPE-1 Normal Prostate Cells; assay: CellTiter-Glo 2D cell viability assay in normal prostate cells; assay type: cell-based
Procedure: as §3

T1 sequence (P50750 whole entry): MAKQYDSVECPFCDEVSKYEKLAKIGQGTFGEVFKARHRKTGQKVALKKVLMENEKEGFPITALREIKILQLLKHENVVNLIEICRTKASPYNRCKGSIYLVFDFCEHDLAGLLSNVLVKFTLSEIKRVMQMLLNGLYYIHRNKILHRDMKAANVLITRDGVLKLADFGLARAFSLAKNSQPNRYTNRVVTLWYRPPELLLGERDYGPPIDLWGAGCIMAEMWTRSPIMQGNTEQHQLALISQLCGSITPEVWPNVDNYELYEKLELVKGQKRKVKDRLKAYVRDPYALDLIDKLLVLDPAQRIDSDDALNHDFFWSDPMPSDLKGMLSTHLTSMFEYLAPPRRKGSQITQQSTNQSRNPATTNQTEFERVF
T1 sequence (O60563 whole entry partner): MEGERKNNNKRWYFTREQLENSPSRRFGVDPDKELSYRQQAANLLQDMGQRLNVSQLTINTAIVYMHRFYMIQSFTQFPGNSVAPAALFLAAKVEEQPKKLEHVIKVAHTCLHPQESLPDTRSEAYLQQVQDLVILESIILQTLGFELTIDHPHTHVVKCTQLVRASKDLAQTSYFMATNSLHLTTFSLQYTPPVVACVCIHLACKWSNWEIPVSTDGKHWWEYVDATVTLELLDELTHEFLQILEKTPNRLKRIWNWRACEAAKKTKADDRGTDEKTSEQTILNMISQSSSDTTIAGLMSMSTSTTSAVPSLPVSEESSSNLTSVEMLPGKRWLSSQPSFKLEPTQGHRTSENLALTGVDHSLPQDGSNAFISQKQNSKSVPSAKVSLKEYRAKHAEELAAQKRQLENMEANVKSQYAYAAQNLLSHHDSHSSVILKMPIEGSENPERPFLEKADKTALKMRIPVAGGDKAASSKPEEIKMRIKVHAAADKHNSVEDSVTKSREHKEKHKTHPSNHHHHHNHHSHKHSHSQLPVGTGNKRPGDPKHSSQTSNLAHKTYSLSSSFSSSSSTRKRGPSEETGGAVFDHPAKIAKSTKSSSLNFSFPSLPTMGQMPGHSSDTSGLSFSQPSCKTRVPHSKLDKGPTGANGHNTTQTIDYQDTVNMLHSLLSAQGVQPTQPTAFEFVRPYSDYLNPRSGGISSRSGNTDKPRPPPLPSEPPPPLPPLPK

SMILES: CC(C)c1c2cc(-c3ccnc(N[C@H]4C[C@@H]5CCC4C5)n3)cnc2nn1C (stereo in doubt) [Compound I-14, N-((1R,2S,4R)-bicyclo[2.2.1]heptan-2-yl)-4-(3-isopropyl-2-methyl-2H-pyrazolo[3,4-b]pyridin-5-yl)pyrimidin-2-amine]
- IC50 (CDK9/CycT1): < 0.05 µM

SMILES: Cn1cc2cc(-c3ccnc(N[C@H]4CC[C@H](N)C4)n3)ccc2n1 [Compound I-6, (1S,3S)-N^1-(4-(2-methyl-2H-indazol-5-yl)pyrimidin-2-yl)cyclopentane-1,3-diamine]
- IC50 (CDK9/CycT1): < 0.05 µM

SMILES: Cc1[nH]nc2ccc(-c3ccnc(N[C@H]4CC[C@H](N)C4)n3)cc12 [Compound I-9, (1S,3S)-N^1-(4-(3-methyl-2H-indazol-5-yl)pyrimidin-2-yl)cyclopentane-1,3-diamine]
- IC50 (CDK9/CycT1): 0.05 to 0.1 µM

SMILES: CC(C)c1nn(C)c2ncc(-c3ccnc(N[C@H]4CC[C@H](N)C4)n3)cc12 [Compound I-11, (1S,3S)-N^1-(4-(3-isopropyl-1-methyl-1H-pyrazolo[3,4-b]pyridin-5-yl)pyrimidin-2-yl)cyclopentane-1,3-diamine]
- IC50 (CDK9/CycT1): > 1 µM

SMILES: CC(=O)N[C@@H]1CCC[C@H](C(=O)Nc2cc(-c3cnn4c3CC(C)(C)C4)c(Cl)cn2)C1 [AZD-4573, reference compound]
- IC50 (C4-2B): 0.000398 µM
- IC50 (LNCap): 1.15 µM
- IC50 (DU-145): 0.151 µM
- IC50 (LASCPC-01): 0.0135 µM
- IC50 (22Rv1): 0.0671 µM
- IC50 (PC-3): 0.4 µM
- IC50 (NCI-H660): 0.000221 µM
- IC50 (C4-2): 0.000237 µM
- IC50 [1]: 0.151 µM
- IC50 ([2]; Homo sapiens, RWPE-1 normal prostate cells, 72 hours): 0.0084 µM
- toxicity to normal prostate cells ([2]; RWPE-1): highly toxic

SMILES: CC(C)c1[nH]nc2ccc(-c3ccnc(N[C@H]4CC[C@H](N)C4)n3)cc12 [Compound I-7, (1S,3S)-N^1-(4-(3-isopropyl-2H-indazol-5-yl)pyrimidin-2-yl)cyclopentane-1,3-diamine]
- IC50 (CDK9/CycT1): < 0.05 µM

SMILES: CC(C)c1c2cc(-c3ccnc(N[C@H]4C[C@@H]5CCC4C5)n3)ccc2nn1C (stereo in doubt) [Compound I-13, N-((1R,2S,4R)-bicyclo[2.2.1]heptan-2-yl)-4-(3-isopropyl-2-methyl-2H-indazol-5-yl)pyrimidin-2-amine]
- IC50 (CDK9/CycT1): < 0.05 µM

More lines, now with the values ahead:

- IC50 (CDK9/CycT1): > 1 µM
SMILES: CC(C)c1c2nc(-c3ccnc(N[C@H]4CC[C@H](N)C4)n3)ccc2nn1C [Compound I-3, (1S,3S)-[3-[4-[3-isopropyl-2-methylpyrazolo[4,3-b]pyridin-5-yl]pyrimidin-2-yl]aminocyclopentan-1-yl]-1,3-diamine]

- IC50 (CDK9/CycT1): < 0.05 µM
SMILES: CC(C)c1c2cc(-c3ccnc(N[C@H]4CC[C@H](N)C4)n3)cnc2nn1C [Compound I-10, (1S,3S)-N^1-(4-(3-isopropyl-2-methyl-2H-pyrazolo[3,4-b]pyridin-5-yl)pyrimidin-2-yl)cyclopentane-1,3-diamine]

- IC50 (CDK9/CycT1): < 0.05 µM
SMILES: CC(C)c1c2cc(-c3ccnc(N[C@H]4CC[C@H](N)C4)n3)cc(F)c2nn1C [Compound I-4, (1S,3S)-[3-[4-(7-fluoro-3-isopropyl-2-methylindazol-5-yl)pyrimidin-2-yl]aminocyclopentan-1-yl]-1,3-diamine]

- IC50 (CDK9/CycT1): < 0.05 µM
SMILES: CC(C)c1c2cc(-c3ccnc(N[C@@H]4CC[C@H](N)C4)n3)ccc2nn1C [Compound I-1, (1S,3R)-[3-[4-(3-isopropyl-2-methylindazol-5-yl)pyrimidin-2-yl]aminocyclopentan-1-yl]-1,3-diamine]

From US20240150322A1, “CDK9 Inhibitors” (Biolexis Therapeutics, Inc., priority 2022, published 2024)
